# Data: patent US20040038824A1, “Agrochemical composition” (priority 2000, published 2004)
# Tested on: Wheat
# Experiment: Greenhouse test of the safener's protective action on wheat against herbicide damage (post-emergence tank mix)
# Format: in vivo
# Details: 2- to 3-leaf stage, tank mix with herbicide propynyl (R)-2[4-[(5-chloro-3-fluoro-2-pyridynyl]oxy-phenoxy]propanoate, 20 days post-application
# Description: Wheat seeds are sown in the greenhouse in plastic pots comprising 0.5 l of garden soil.
smiles,measurement,value
"CCCCCC(C)OC(=O)COc1ccc(Cl)c2cccnc12 (stereo not shown) [safener of the formula I, 1-methylhexyl (5-chloroquinolin-8-yloxy)acetate tetrahydrate]",protective action of the safener in comparison with the plants treated with the herbicide only,very effective
